Structures are written as SMILES. A value given as a limit tells only on which side of the number the result lay.

The term IC50 denotes the concentration that inhibits the measured activity by half. A higher IC50 goes with a need for much substance.

One experiment deals with human JAK1 (Homo sapiens, UniProt P23458). In words: In vitro JAK kinase assay (HTRF, Example A). It is filed as biochemical. The note with it: 1 mM ATP. (Time-resolved FRET reads energy transfer from a long-lived donor to a nearby acceptor.)
In another experiment the target is human JAK2 (Homo sapiens (Human), UniProt O60674). As to the kind of experiment: In vitro JAK kinase assay (HTRF, Example A). It is filed as biochemical. As to conditions: JAK2/JAK1 IC50 ratio, 1 mM ATP.
Sequence of human JAK2 (O60674 828-1132): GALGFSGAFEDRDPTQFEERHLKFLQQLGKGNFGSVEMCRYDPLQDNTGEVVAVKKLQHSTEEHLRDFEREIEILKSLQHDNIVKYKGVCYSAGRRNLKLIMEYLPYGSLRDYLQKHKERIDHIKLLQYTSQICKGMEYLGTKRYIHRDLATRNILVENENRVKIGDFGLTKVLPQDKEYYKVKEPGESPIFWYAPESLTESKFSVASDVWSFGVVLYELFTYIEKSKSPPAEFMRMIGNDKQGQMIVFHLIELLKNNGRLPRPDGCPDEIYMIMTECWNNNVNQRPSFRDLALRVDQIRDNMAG

Protocol for human JAK1: (§1) The catalytic activity of JAK1, JAK2 or JAK3 was assayed by measuring the phosphorylation of a biotinylated peptide. The phosphorylated peptide was detected by homogenous time resolved fluorescence (HTRF). […] Reactions were carried out at room temperature for 1 hour and then stopped with 20 μL 45 mM EDTA, 300 nM SA-APC, 6 nM Eu-Py20 in assay buffer (Perkin Elmer, Boston, MA). Binding to the Europium labeled antibody took place for 40 minutes and HTRF signal was measured on a Fusion plate reader (Perkin Elmer, Boston, MA).
Protocol for human JAK2: as §1

Take `N#CCC(CN1CCN(C(=O)c2ccc(C#N)cc2F)CC1)n1cc(-c2ncnc3[nH]ccc23)cn1` (stereo not drawn) [Compound 8, 4-[(4-{3-cyano-2-[4-(7H-pyrrolo[2,3-d]pyrimidin-4-yl)-1H-pyrazol-1-yl]propyl}piperazin-1-yl)carbonyl]-3-fluorobenzonitrile]: at human JAK1, the IC50 is less than 0.01 µM. In addition, on human JAK2, the JAK2/JAK1 is greater than 10.

`C[C@@H](O)c1nc2cnc3ccsc3c2n1[C@H]1CC[C@H](CC#N)OC1` [Compound 5, ((2R,5S)-5-{2-[(1R)-1-hydroxyethyl]-1H-imidazo[4,5-d]thieno[3,2-b]pyridin-1-yl}tetrahydro-2H-pyran-2-yl)acetonitrile] came in with a half-inhibitory concentration (IC50) against human JAK1 of less than 0.1 µM. Further, the JAK2/JAK1 at human JAK2 was greater than 10.

Turning to `N#CC[C@]1(n2cc(-c3ncnc4[nH]ccc34)cn2)C[C@H](N2CCC(Oc3cc(CN4CC(O)C4)cc(C(F)(F)F)n3)CC2)C1` [Compound 11, {trans-3-(4-{[4-[(3-hydroxyazetidin-1-yl)methyl]-6-(trifluoromethyl)pyridin-2-yl]oxy}piperidin-1-yl)-1-[4-(7H-pyrrolo[2,3-d]pyrimidin-4-yl)-1H-pyrazol-1-yl]cyclobutyl}acetonitrile], the IC50 against human JAK1 is less than 0.01 µM. Moreover, the JAK2/JAK1 at human JAK2 is greater than 10.

On human JAK1, `N#CCC1(n2cc(-c3ncnc4[nH]ccc34)cn2)CN(C2CCN(C(=O)c3ccnc(C(F)(F)F)c3F)CC2)C1` [Compound 4, {1-{1-[3-Fluoro-2-(trifluoromethyl)isonicotinoyl]piperidin-4-yl}-3-[4-(7H-pyrrolo[2,3-d]pyrimidin-4-yl)-1H-pyrazol-1-yl]azetidin-3-yl}acetonitrile] registered an IC50 of less than 0.01 µM. Moreover, on human JAK2, the JAK2/JAK1 is listed as greater than 10.

`N#CC[C@]1(n2cc(-c3ncnc4[nH]ccc34)cn2)C[C@H](N2CCN(C(=O)c3ccnc(C(F)(F)F)n3)CC2)C1` [Compound 10, [trans-1-[4-(7H-pyrrolo[2,3-d]pyrimidin-4-yl)-1H-pyrazol-1-yl]-3-(4-{[2-(trifluoromethyl)pyrimidin-4-yl]carbonyl}piperazin-1-yl)cyclobutyl]acetonitrile] had a half-inhibitory concentration (IC50) on human JAK1 of less than 0.01 µM. On human JAK2, the JAK2/JAK1 is greater than 10.

`N#CCC(C1CCN(c2cccc(Cl)n2)C1)n1cc(-c2ncnc3[nH]ccc23)cn1` (single isomer, unassigned) [Compound 6, 3-[1-(6-chloropyridin-2-yl)pyrrolidin-3-yl]-3-[4-(7H-pyrrolo[2,3-d]pyrimidin-4-yl)-1H-pyrazol-1-yl]propanenitrile] registered a half-inhibitory concentration (IC50) against human JAK1 of less than 0.01 µM. For the same molecule, the JAK2/JAK1 at human JAK2 is reported as greater than 10.

As to `CCNCc1cc(O[C@H]2CC[C@@H](N3CC(CC#N)(n4cc(-c5ncnc6[nH]ccc56)cn4)C3)CC2)nc(C(F)(F)F)c1` [Compound 19, {1-(cis-4-{[4-[(ethylamino)methyl]-6-(trifluoromethyl)pyridin-2-yl]oxy}cyclohexyl)-3-[4-(7H-pyrrolo[2,3-d]pyrimidin-4-yl)-1H-pyrazol-1-yl]azetidin-3-yl}acetonitrile], the IC50 on human JAK1 is less than 0.01 µM. In addition, the JAK2/JAK1 on human JAK2 was greater than 10.

For the molecule `N#CCC1(n2cc(-c3ncnc4[nH]ccc34)cn2)CN([C@H]2CC[C@@H](Oc3cc(CCO)nc(C(F)(F)F)n3)CC2)C1` [Compound 18, {1-(cis-4-{[6-(2-hydroxyethyl)-2-(trifluoromethyl)pyrimidin-4-yl]oxy}cyclohexyl)-3-[4-(7H-pyrrolo[2,3-d]pyrimidin-4-yl)-1H-pyrazol-1-yl]azetidin-3-yl}acetonitrile], the concentration for half-maximal inhibition (IC50) against human JAK1 was less than 0.01 µM. Moreover, the JAK2/JAK1 on human JAK2 is listed as greater than 10.

`N#CCC1(n2cc(-c3ncnc4[nH]ccc34)cn2)CN(C2CCN(C(=O)Nc3ccc(F)cc3C(F)(F)F)CC2)C1` [Compound 2, 4-{3-(Cyanomethyl)-3-[4-(7H-pyrrolo[2,3-d]pyrimidin-4-yl)-1H-pyrazol-1-yl]azetidin-1-yl}-N-[4-fluoro-2-(trifluoromethyl)phenyl]pipe-ridine-1-carboxamide] came in with a half-maximal inhibitory concentration (IC50) on human JAK1 of less than 0.01 µM. Besides, the JAK2/JAK1 on human JAK2 was greater than 10.

For `N#CC[C@]1(n2cc(-c3ncnc4[nH]ccc34)cn2)C[C@H](N2CCC(Oc3cc(CN4CCC[C@H]4CO)cc(C(F)(F)F)n3)CC2)C1` [Compound 12, {trans-3-(4-{[4-{[(2S)-2-(hydroxymethyl)pyrrolidin-1-yl]methyl}-6-(trifluoromethyl)pyridin-2-yl]oxy}piperidin-1-yl)-1-[4-(7H-pyrrolo[2,3-d]pyrimidin-4-yl)-1H-pyrazol-1-yl]cyclobutyl}acetonitrile], on human JAK1, the IC50 was less than 0.01 µM. In addition, the JAK2/JAK1 on human JAK2 is reported as greater than 10.

Take `C[C@@H](CO)NCc1cc(OC2CCN([C@H]3C[C@](CC#N)(n4cc(-c5ncnc6[nH]ccc56)cn4)C3)CC2)nc(C(F)(F)F)c1` [Compound 23, {trans-3-(4-{[4-({[(1S)-2-hydroxy-1-methylethyl]amino}methyl)-6-(trifluoromethyl)pyridin-2-yl]oxy}piperidin-1-yl)-1-[4-(7H-pyrrolo[2,3-d]pyrimidin-4-yl)-1H-pyrazol-1-yl]cyclobutyl}acetonitrile]: on human JAK1, the concentration for half-maximal inhibition (IC50) was less than 0.01 µM. Moreover, the JAK2/JAK1 at human JAK2 is recorded as greater than 10.

With `CC(C)(O)c1cc(O[C@H]2CC[C@@H](N3CC(CC#N)(n4cc(-c5ncnc6[nH]ccc56)cn4)C3)CC2)nc(C(F)(F)F)c1` [Compound 20, {1-(cis-4-{[4-(1-hydroxy-1-methylethyl)-6-(trifluoromethyl)pyridin-2-yl]oxy}cyclohexyl)-3-[4-(7H-pyrrolo[2,3-d]pyrimidin-4-yl)-1H-pyrazol-1-yl]azetidin-3-yl}acetonitrile], at human JAK1, the concentration for half-maximal inhibition (IC50) was less than 0.01 µM. Moreover, the JAK2/JAK1 on human JAK2 is on record as greater than 10.

`N#CCC(C1CCN(c2nc3cccnc3o2)C1)n1cc(-c2ncnc3[nH]ccc23)cn1` (stereo not drawn) [Compound 7, 3-(1-[1,3]oxazolo[5,4-b]pyridin-2-ylpyrrolidin-3-yl)-3-[4-(7H-pyrrolo[2,3-d]pyrimidin-4-yl)-1H-pyrazol-1-yl]propanenitrile] gave a half-inhibitory concentration (IC50) against human JAK1 of less than 0.01 µM. For the same molecule, the JAK2/JAK1 at human JAK2 is reported as greater than 10.

`N#CCC1(n2cc(-c3ncnc4[nH]ccc34)cn2)CN(C2CCN(C(=O)c3ccnc(C(F)(F)F)n3)CC2)C1` [Compound 3, [3-[4-(7H-pyrrolo[2,3-d]pyrimidin-4-yl)-1H-pyrazol-1-yl]-1-(1-{[2-(trifluoromethyl)pyrimidin-4-yl]carbonyl}piperidin-4-yl)azetidin-3-yl]acetonitrile] gave an IC50 at human JAK1 of less than 0.01 µM. Besides, at human JAK2, the JAK2/JAK1 is greater than 10.

Take `C[C@H](NC(=O)c1cc(F)c(N2CC(CC#N)(n3cc(-c4ncnc5[nH]ccc45)cn3)C2)cc1F)C(F)(F)F` [Compound 16, 4-{3-(cyanomethyl)-3-[4-(7H-pyrrolo[2,3-d]pyrimidin-4-yl)-1H-pyrazol-1-yl]azetidin-1-yl}-2,5-difluoro-N-[(1S)-2,2,2-trifluoro-1-methylethyl]benzamide]: the IC50 on human JAK1 is less than 0.01 µM. For the same molecule, the JAK2/JAK1 on human JAK2 is given as greater than 10.

`N#CCC1(n2cc(-c3ncnc4[nH]ccc34)cn2)CN([C@H]2CC[C@@H](Oc3cc(CN4CC[C@@H](O)C4)cc(C(F)(F)F)n3)CC2)C1` [Compound 21, {1-(cis-4-{[4-{[(3R)-3-hydroxypyrrolidin-1-yl]methyl}-6-(trifluoromethyl)pyridin-2-yl]oxy}cyclohexyl)-3-[4-(7H-pyrrolo[2,3-d]pyrimidin-4-yl)-1H-pyrazol-1-yl]azetidin-3-yl}acetonitrile] yielded an IC50 at human JAK1 of less than 0.01 µM. The JAK2/JAK1 on human JAK2 was greater than 10.

On human JAK1, `C[C@H](O)CNCc1cc(OC2CCN([C@H]3C[C@](CC#N)(n4cc(-c5ncnc6[nH]ccc56)cn4)C3)CC2)nc(C(F)(F)F)c1` [Compound 25, {trans-3-(4-{[4-({[(2S)-2-hydroxypropyl]amino}meth-yl)-6-(trifluoromethyl)pyridin-2-yl]oxy}piperidin-1-yl)-1-[4-(7H-pyrrolo[2,3-d]pyrimidin-4-yl)-1H-pyrazol-1-yl]cyclobutyl}acetonitrile] returned an IC50 of less than 0.01 µM. Besides, the JAK2/JAK1 on human JAK2 was greater than 10.

For the molecule `N#CC[C@]1(n2cc(-c3ncnc4[nH]ccc34)cn2)C[C@H](N2CCC(Oc3cc(CCO)cc(C(F)(F)F)n3)CC2)C1` [Compound 26, {trans-3-(4-{[4-(2-hydroxyethyl)-6-(trifluoromethyl)pyridin-2-yl]oxy}piperidin-1-yl)-1-[4-(7H-pyrrolo[2,3-d]pyrimidin-4-yl)-1H-pyrazol-1-yl]cyclobutyl}acetonitrile], the half-inhibitory concentration (IC50) against human JAK1 is less than 0.01 µM. Besides, the JAK2/JAK1 on human JAK2 is listed as greater than 10.

Turning to `N#CC[C@]1(n2cc(-c3ncnc4[nH]ccc34)cn2)C[C@H](N2CCC(Oc3cc(CN4CCC[C@@H]4CO)cc(C(F)(F)F)n3)CC2)C1` [Compound 13, {trans-3-(4-{[4-{[(2R)-2-(hydroxymethyl)pyrrolidin-1-yl]methyl}-6-(trifluoromethyl)pyridin-2-yl]oxy}piperidin-1-yl)-1-[4-(7H-pyrrolo[2,3-d]pyrimidin-4-yl)-1H-pyrazol-1-yl]cyclobutyl}acetonitrile], the IC50 against human JAK1 is less than 0.01 µM. In addition, the JAK2/JAK1 at human JAK2 is listed as greater than 10.

Consider `C[C@@H](O)CNCc1cc(OC2CCN([C@H]3C[C@](CC#N)(n4cc(-c5ncnc6[nH]ccc56)cn4)C3)CC2)nc(C(F)(F)F)c1` [Compound 24, {trans-3-(4-{[4-({[(2R)-2-hydroxypropyl]amino}meth-yl)-6-(trifluoromethyl)pyridin-2-yl]oxy}piperidin-1-yl)-1-[4-(7H-pyrrolo[2,3-d]pyrimidin-4-yl)-1H-pyrazol-1-yl]cyclobutyl}acetonitrile], for which the IC50 at human JAK1 is less than 0.01 µM. Further, the JAK2/JAK1 on human JAK2 is reported as greater than 10.

`N#CCC(CN1CCN(C(=O)c2ccc(C#N)cc2F)CC1)n1ccc(-c2ncnc3[nH]ccc23)c1` (stereo not drawn) [Compound 9, 4-[(4-{3-cyano-2-[3-(7H-pyrrolo[2,3-d]pyrimidin-4-yl)-1H-pyrrol-1-yl]propyl}piperazin-1-yl)carbonyl]-3-fluorobenzonitrile] gave an IC50 on human JAK1 of less than 0.01 µM. In addition, on human JAK2, the JAK2/JAK1 is listed as greater than 10.
